Usually IC50 stands for the point on the concentration scale where inhibition reaches its midpoint. The term EC50 denotes the concentration needed to bring the measured effect to its halfway point. The AC50 is the midpoint of the concentration-response curve, whichever way the signal moves.

These results are taken from ChEMBL document CHEMBL1201862, “PubChem BioAssay data set” (2004).

The source made the active and inactive calls.

In experiment [1] the target is T1, High affinity choline transporter 1 (Homo sapiens, UniProt Q9GZV3).
T1 sequence (Q9GZV3 whole entry): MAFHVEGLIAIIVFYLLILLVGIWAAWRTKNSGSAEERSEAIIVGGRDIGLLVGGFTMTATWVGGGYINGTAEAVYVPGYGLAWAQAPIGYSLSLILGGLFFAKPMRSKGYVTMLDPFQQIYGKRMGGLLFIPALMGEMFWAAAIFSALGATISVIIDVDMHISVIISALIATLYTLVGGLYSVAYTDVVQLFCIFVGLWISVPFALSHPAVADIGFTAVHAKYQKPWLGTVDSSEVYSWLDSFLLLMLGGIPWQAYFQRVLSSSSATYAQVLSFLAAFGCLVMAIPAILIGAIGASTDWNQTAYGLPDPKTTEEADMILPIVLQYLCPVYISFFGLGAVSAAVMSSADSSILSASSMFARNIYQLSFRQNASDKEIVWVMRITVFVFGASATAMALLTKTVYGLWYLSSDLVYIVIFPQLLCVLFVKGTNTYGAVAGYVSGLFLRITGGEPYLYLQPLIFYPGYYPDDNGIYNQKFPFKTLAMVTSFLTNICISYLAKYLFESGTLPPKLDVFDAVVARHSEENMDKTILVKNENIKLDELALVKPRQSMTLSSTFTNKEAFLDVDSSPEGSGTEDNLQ
In words: CHT inhibitors, dose response, cell-based, 5-point CRC, membrane potential dye (AID 504840). Format: functional.

In experiment [2] the target is T1, High affinity choline transporter 1. As to the kind of experiment: CHT inhibitors, dose response, cell-based, 10-point CRC, membrane potential dye (AID 588401).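 Note: membrane potential dye fluorescence of choline-evoked depolarization via CHT.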 Format: functional.
The nature of experiment [3]: HepG2 cell cytotoxicity, dose response, cytotoxicity control for non-replicating M. tuberculosis project (AID 489018). Format: functional. The settings on record: Mycobacterium tuberculosis.
Experiment [4] in a line: HepG2 cell cytotoxicity, dose response, cytotoxicity control, set 3 (AID 504853). Format: functional. As to conditions: Mycobacterium tuberculosis.
Experiment [5] can be described thus: inhibitors of intracellular T. cruzi replication, confirmation, NIH3T3 host cells, beta-gal luminescence (AID 2044).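 Note: intracellular parasites grown in NIH/3T3 mouse fibroblasts as host cells; luminescent beta-galactosidase reporter signal from transgenic T. cruzi replicating inside host cells; inhibitors lower the luminescence signal.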 The format is functional, cell-based.
A short description of experiment [6]: HepG2 cell cytotoxicity, cytotoxicity control, set 4 (AID 504910). Format: functional. As to conditions: Mycobacterium tuberculosis.
A further experiment in a line: cells. The format is functional.
In another experiment the test system is Streptococcus. As to the kind of experiment: Group A Streptococcus viability loss, dose response, counter-screen for streptokinase expression inhibitor project, luminescence, BacTiterGlo (AID 1915).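 Note: potency for reduction of bacterial viability or growth.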 The format is functional, organism-based. (Counterscreens check selectivity or assay interference.)
A short description of experiment [7]: THP-1 cell cytotoxicity, dose response, cytotoxicity control for non-replicating M. tuberculosis project (AID 489025). The format is functional.
Experiment [8] in a line: Vero E6 cell cytotoxicity, dose response, cytotoxicity control for non-replicating M. tuberculosis project, secondary assay (AID 492998). The format is functional, VeroE6. As to conditions: Vero C1008.
Experiment [9] deals with Streptococcus sp. 'group A'. As to the kind of experiment: growth inhibition of control SK(-) GAS strain, dose response, counter-screen for streptokinase expression inhibitor project, luminescence, kanamycin, BacTiterGlo, confirmation (AID 1900). The format is functional, organism-based.
A short description of experiment [10]: inhibitors of firefly luciferase expression or activity, dose response, H4 neuroglioma cells, luminescence (AID 1990). The format is functional, cell-based.
The nature of experiment [11]: microbe, parasite or virus in culture. As to conditions: Mycobacterium tuberculosis. The format is functional.
Experiment [12] is described as follows: Vero cell cytotoxicity, dose response, cytotoxicity control for M. tuberculosis growth inhibitor project, Vero cells, purified and synthesized compounds, set 5 (AID 504909). The format is functional. As to conditions: Mycobacterium tuberculosis.
Experiment [13] can be described thus: inhibitors of SNCA 5'UTR-driven reporter translation, confirmation, H4 neuroglioma cells, luminescence (AID 1988). The format is functional, cell-based.
Experiment [14] is described as follows: Vero cell cytotoxicity, dose response, cytotoxicity control for M. tuberculosis growth inhibitor project, Vero cells, purified and synthesized compounds, set 4 (AID 504854). As to conditions: Mycobacterium tuberculosis. Format: functional.
The nature of experiment [15]: Luminescence Cell-Based Dose Response HTS to Identify Inhibitors of 5'UTR Stem-Loop Driven Prion Protein mRNA Translation in H4 Neuroglioblastoma Cells. [Related pubchem assays: 1827 (Project Summary), 1813 (Primary HTS)]. Format: functional.
The next experiment addresses T2, Streptokinase A (Streptococcus pyogenes serotype M1, UniProt P10520).
T2 sequence (P10520 whole entry): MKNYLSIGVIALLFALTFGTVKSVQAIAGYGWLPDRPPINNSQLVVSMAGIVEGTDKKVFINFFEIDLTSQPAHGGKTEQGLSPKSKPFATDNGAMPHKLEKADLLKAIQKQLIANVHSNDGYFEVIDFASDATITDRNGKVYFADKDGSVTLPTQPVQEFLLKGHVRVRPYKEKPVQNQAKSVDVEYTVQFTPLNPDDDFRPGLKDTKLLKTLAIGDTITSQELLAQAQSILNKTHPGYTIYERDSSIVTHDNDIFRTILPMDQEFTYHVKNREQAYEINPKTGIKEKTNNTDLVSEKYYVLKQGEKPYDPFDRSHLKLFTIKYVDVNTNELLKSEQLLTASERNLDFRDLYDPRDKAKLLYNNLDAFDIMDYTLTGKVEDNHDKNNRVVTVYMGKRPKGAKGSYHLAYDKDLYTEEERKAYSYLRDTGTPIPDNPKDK
As to the kind of experiment: S. pyogenes streptokinase expression inhibitors, potency, dose response, plasminogen activation absorbance, OD405 (AID 1914).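 Note: secreted streptokinase activity via plasminogen activation per viability signal from cell pellet.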 Format: functional, Streptococcus pyogenes M1 GAS.

For the next experiment, the system named is INS1. In words: beta cell apoptosis inhibitors, cytokine rescue, dose response, luminescence, retest (AID 449756).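 Note: cell death triggered by IL-1 beta plus TNF-alpha plus IFN-gamma mixture; protective hits raise ATP signal compared with cytokine alone wells.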 Format: functional, cell-based. As to conditions: Rattus norvegicus.
The nature of experiment [16]: THP-1 cell cytotoxicity, dose response, cytotoxicity control, set 3 (AID 504852). The format is functional. As to conditions: Mycobacterium tuberculosis.
Experiment [17] in a line: cytotoxicity toward NIH3T3 fibroblasts, dose response, counter-screen, cell-based, ATP luminescence, mouse fibroblasts (AID 2010).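 Note: cells exposed to compound for about 90 hours before reading.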 The format is functional.
A short description of experiment [18]: Vero cell cytotoxicity, cytotoxicity control for M. tuberculosis inhibitor project, purified and synthesized samples, set 3 (AID 504684). The format is functional. As to conditions: […].
Experiment [19] in a line: THP-1 cell cytotoxicity, cytotoxicity control, set 4 (AID 504911). The format is functional. As to conditions: Mycobacterium tuberculosis.
Experiment [20] in a line: A Cell Based Secondary Assay to Explore Cytotoxicity in HepG2 Cells of Compounds that Modulate Mycobacterium tuberculosis in Media Containing Glycerol versus Media without Glycerol (2). The format is functional.
Experiment [21] is described as follows: A Cell Based Secondary Assay to Explore Cytotoxicity in THP-1 Cells of Compounds that Modulate Mycobacterium tuberculosis in Media Containing Glycerol versus Media without Glycerol (2). The format is functional.

As for `Cc1ccc[n+](CC(=O)c2ccc(Br)cc2)c1`, the IC50 in experiment [1] was 0.0775 µM (inconclusive); in experiment [2], 0.713 µM (active).

Regarding `c1ccc(N=C2N=C(Nc3ccccn3)c3ccccc32)nc1`, the CC50 was < 0.039 µM (active) in experiment [3]; 21.2 µM (active) in experiment [4]; > 41.3 µM (active) in experiment [6]; 0.148 µM (active) in [7]; 0.5 µM (active) in [8]; > 40 µM (active) in experiment [11]. Also, the CC50 is 60.5 µM (active) in experiment [12]; > 100 µM (active) in experiment [14]; > 71.4 µM (active) in experiment [16]; < 0.2 µM (active) in experiment [18]; > 76.9 µM (active) in [19]; < 0.1 µM (active) in experiment [20]. Besides, in [21], the CC50 is < 0.2 µM (active). In addition, the EC50 is 0.687 µM (active) in experiment [5]; > 150 µM (not active) in the experiment on Streptococcus; 5.41 µM (active) in [9]; 10.5 µM (active) in experiment [10]; 13.4 µM (active) in experiment [13]; > 120 µM (not active) in experiment [15]. For the same molecule, the values for the EC50 (at Streptokinase A; in experiment [17]) were 22.2 µM (active) and 17.7 µM (active), respectively. Besides, in the experiment “cells”, the concentration for half-maximal inhibition (IC50) is < 0.1 µM (active). Further, the AC50 with INS1 was 0.795 µM (active).
